According to PMC10531311, “Anti-Inflammatory Activities of 8-Benzylaminoxanthines Showing High Adenosine A2A and Dual A1/A2A Receptor Affinity” (International Journal of Molecular Sciences, 2023):
Marks after values point to notes of the source that are not given here.

Key:
[1] = tested on: formalin test in mice; assay: Formalin test; type: in vivo, albino Swiss mice; conditions: mice
Description: Injection of formalin into the dorsal surface of the hind paw of a mouse produces a biphasic nocifensive behavioral response; i.e., licking, biting, flinching or lifting of the injected paw. The acute (neurogenic) nociceptive phase lasts for the first 5 min and is followed by a period of little activity for the next 10 min. The first phase of the test is directly associated with nociceptor stimulation and the development of neurogenic inflammation. The second (late) phase occurs between 15 and 30 min after formalin injection. The second phase depends on peripheral inflammation and the central sensitization of pain. Since this phase reflects the activation of inflammatory processes, the compounds active in this phase of the experiment also have an anti-inflammatory effect. The tested compounds 19, 22 and 24, were investigated in three doses: 10, 20 and 40 mg/kg bw. ASA (acetylsalicylic acid) was used as a reference compound and administered in doses of 50, 100 and 200 mg/kg. […] The strongest effect in this assay was produced by 24. […] In addition, this anti-nociceptive and anti-inflammatory effect was approximately 13.8 times greater than that observed for the reference compound (ASA). […] ASA also attenuated statistically significant pain responses in the late phases of the formalin test. […] The in vivo experiments were carried out on male albino Swiss mice weighing 18–26 g and male Wistar rats weighing 150–180 g. The animals were housed in constant temperature facilities exposed to a 12:12 light-dark cycle and maintained on a standard pellet diet and tap water given ad libitum. The control and experimental groups consisted of 6–8 animals each. The investigated compounds were intraperitoneally (ip) administered in the form of a suspension in 0.5% methylcellulose. Control animals received the equivalent volume of solvent. All procedures were conducted according to the guidelines of ICLAS (International Council on Laboratory Animals Science) and were approved by the Local Ethics Committee of the Jagiellonian University in Kraków. The mice were pretreated with the test compound or the vehicle and were allowed to acclimate in Plexiglas observation chambers (20 × 30 × 15 cm) for 30 min before the test. Then, 20 μL of a 5% formalin solution was intraplantarly injected into the right hind paw using a 26-gauge needle. Immediately after formalin injection, the animals were individually placed into glass beakers and were observed during the next 30 min. Time (in seconds) spent on licking or biting the injected paw in selected intervals, 0–5, 15–20, 20–25 and 25–30 min, was measured in each experimental group and was an indicator of nociceptive behavior [41]. The ED50 values and their confidence limits were estimated by the method of Litchfield and Wilcoxon.

[2] = biological target: T1, human adenosine A2BR (Homo sapiens, UniProt P29275); assay: Radioligand binding at human adenosine A2B receptor vs. [3H]PSB-603; conditions: for inhibition at 1 µM: CHO cells, read-out: A2BR vs. [³H]PSB-603 % Inhibition ± SEM at 1 µM; for Ki: human recombinant receptor in CHO cells, read-out: A2BR vs. [³H]PSB-603 Ki ± SEM
T1 construct: expressed in transfected cells; host or cells: CHO cells
T1 sequence (P29275 1-332): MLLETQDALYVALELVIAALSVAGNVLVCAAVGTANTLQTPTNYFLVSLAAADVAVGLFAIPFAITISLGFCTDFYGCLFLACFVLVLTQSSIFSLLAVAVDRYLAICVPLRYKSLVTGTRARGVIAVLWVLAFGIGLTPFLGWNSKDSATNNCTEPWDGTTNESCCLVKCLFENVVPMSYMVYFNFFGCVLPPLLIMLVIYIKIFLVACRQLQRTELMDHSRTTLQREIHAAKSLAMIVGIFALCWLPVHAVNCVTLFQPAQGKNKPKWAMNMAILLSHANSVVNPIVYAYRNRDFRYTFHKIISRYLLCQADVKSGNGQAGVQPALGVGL
Description: (§1) Affinities for adenosine receptors were evaluated in radioligand binding assays as previously described. Human adenosine receptors were stably expressed in CHO cells. The following radioligands were used: [^3H]2-chloro-N^6-cyclopentyladenosine ([^3H]CCPA) for A1R; [^3H]3-(3-hydroxypropyl)-7-methyl-8-(m-methoxystyryl)-1-propargylxanthine ([^3H]MSX-2) for A2AR; [^3H]8-(4-(4-(4-chlorophenyl)piperazine-1-sulfonyl)phenyl)-1-propylxanthine ([^3H]PSB-603) for A2BR; [^3H]phenyl-8-ethyl-4-methyl-(8R)-4,5,7,8-tetrahydro-1H-imidazo [2,1-i]purine-5-one ([^3H]PSB-11) for A3R. Initially, compounds were tested at a concentration of 1 µM. […] At least three independent experiments were performed. Data were analyzed using GraphPad PRISM version 5.0 or higher (Graph Pad, San Diego, CA, USA). Ki were calculated using the Cheng–Prusoff equation.

[3] = biological target: T2, human adenosine A2AR (Homo sapiens, UniProt P29274); assay: Radioligand binding at human adenosine A2A receptor vs. [3H]MSX-2; conditions: for Ki: human recombinant receptor in CHO cells, read-out: A2AR vs. [³H]MSX-2 Ki ± SEM; for A2AR vs. [³H]MSX-2 % Inhibition ± SEM at 1 µM: CHO cells
T2 construct: expressed in transfected cells; host or cells: CHO cells
Description: as §1

[4] = biological target: T3, human adenosine A1R (Homo sapiens, UniProt P30542); assay: Radioligand binding at human adenosine A1 receptor vs. [3H]CCPA; conditions: for inhibition at 1 µM: CHO cells, read-out: A1R vs. [³H]CCPA % Inhibition ± SEM at 1 µM; for Ki: human recombinant receptor in CHO cells, read-out: A1R vs. [³H]CCPA Ki ± SEM
T3 construct: expressed in transfected cells; host or cells: CHO cells
T3 sequence (P30542 1-326): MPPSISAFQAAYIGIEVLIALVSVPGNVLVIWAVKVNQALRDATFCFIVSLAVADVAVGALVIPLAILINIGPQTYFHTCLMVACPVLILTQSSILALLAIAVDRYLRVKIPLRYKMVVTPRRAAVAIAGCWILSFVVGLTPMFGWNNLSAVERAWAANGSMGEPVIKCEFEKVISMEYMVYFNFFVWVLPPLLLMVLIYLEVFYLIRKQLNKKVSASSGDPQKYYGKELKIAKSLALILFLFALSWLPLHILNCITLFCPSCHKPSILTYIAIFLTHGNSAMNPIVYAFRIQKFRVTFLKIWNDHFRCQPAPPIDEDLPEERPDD
Description: as §1

[5] = biological target: T4, human adenosine A3R (Homo sapiens, UniProt P0DMS8); assay: Radioligand binding at human adenosine A3 receptor vs. [3H]PSB-11; conditions: for inhibition at 1 µM: CHO cells, read-out: A3R vs. [H³]PSB-11 % Inhibition ± SEM at 1 µM; for Ki: human recombinant receptor in CHO cells, read-out: A3R vs. [H³]PSB-11 Ki ± SEM
T4 construct: expressed in transfected cells; host or cells: CHO cells
T4 sequence (P0DMS8 1-318): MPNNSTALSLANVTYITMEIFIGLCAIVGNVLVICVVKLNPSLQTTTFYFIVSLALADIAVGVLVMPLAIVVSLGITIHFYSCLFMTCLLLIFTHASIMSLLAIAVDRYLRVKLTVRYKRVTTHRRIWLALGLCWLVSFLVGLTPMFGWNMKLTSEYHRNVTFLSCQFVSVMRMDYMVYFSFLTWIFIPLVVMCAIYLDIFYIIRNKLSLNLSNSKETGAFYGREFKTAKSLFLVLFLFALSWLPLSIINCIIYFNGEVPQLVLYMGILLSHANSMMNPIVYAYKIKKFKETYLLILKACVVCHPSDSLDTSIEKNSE
Description: as §1

T2 sequence (P29274 whole entry): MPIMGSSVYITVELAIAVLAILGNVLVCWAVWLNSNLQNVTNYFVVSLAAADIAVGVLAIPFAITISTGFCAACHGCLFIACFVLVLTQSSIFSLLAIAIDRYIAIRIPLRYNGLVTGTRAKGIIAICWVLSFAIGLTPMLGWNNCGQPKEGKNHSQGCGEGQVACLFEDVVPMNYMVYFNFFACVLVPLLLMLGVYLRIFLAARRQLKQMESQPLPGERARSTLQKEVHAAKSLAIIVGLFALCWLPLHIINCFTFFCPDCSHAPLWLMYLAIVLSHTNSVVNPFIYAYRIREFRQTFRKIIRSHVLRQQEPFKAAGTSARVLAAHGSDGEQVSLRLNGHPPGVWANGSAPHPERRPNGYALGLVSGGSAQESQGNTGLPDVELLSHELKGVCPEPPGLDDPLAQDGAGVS

Row | inhibition at 1 µM [2] [%] | Ki [2] [µM] | Ki [3] [µM] | melting point [°C] | inhibition at 1 µM [4] [%] | Ki [4] [µM] | inhibition at 1 µM [5] [%] | Ki [5] [µM] | A2AR vs. [³H]MSX-2 % Inhibition ± SEM at 1 µM [3] [%] | SMILES | other results
1 |  |  |  |  |  |  |  |  |  | CC(=O)Oc1ccccc1C(=O)O [ASA, acetylsalicylic acid, reference compound] | ED50 ([1]; Mus musculus, II (late) phase, method of Litchfield and Wilcoxon, read-out: calculated ED50 in the formalin test): 126 mg/kg; Early Phase Inhibition (%) ([1]; 50 mg/kg): 12.4%; Late Phase Inhibition (%) ([1]; 50 mg/kg): 10.0%; Licking of the Hind Paw Early Phase (0–5 min) Mean ± SEM ([1]; 50 mg/kg): 59.8 ± 6.3 s; Licking of the Hind Paw Late Phase (15–30 min) Mean ± SEM ([1]; 50 mg/kg): 108.7 ± 13.8 s; Early Phase Inhibition (%) ([1]; 100 mg/kg): 14.3%; Late Phase Inhibition (%) ([1]; 100 mg/kg): 50.0%; Licking of the Hind Paw Early Phase (0–5 min) Mean ± SEM ([1]; 100 mg/kg): 58.5 ± 4.5 s; Licking of the Hind Paw Late Phase (15–30 min) Mean ± SEM ([1]; 100 mg/kg): 60.3 ± 9.5 ^c sec; Late Phase Inhibition (%) ([1]; 200 mg/kg): 66.3%; Licking of the Hind Paw Early Phase (0–5 min) Mean ± SEM ([1]; 200 mg/kg): 62.0 ± 8.6 s; Licking of the Hind Paw Late Phase (15–30 min) Mean ± SEM ([1]; 200 mg/kg): 40.6 ± 14.0 ^c sec
2 | 32 | > 1 | 0.318 ± 0.141 | 181 to 183 | 21 | > 1 | 11 | > 1 |  | CCCCn1c(=O)c2c(nc(NCc3ccccc3Cl)n2C)n(C)c1=O [compound 6, 1-Butyl-8-((2-chlorobenzyl)amino)-3,7-dimethyl-3,7-dihydro-1H-purine-2,6-dione] | 
3 | 41 | > 1 | > 1 | 177 to 180 | 35 | > 1 | 13 | > 1 | 38 ± 4 | CCCCCn1c(=O)c2c(nc(NCc3ccccc3Cl)n2C)n(C)c1=O [compound 7, 8-((2-Chlorobenzyl)amino)-3,7-dimethyl-1-pentyl-3,7-dihydro-1H-purine-2,6-dione] | 
4 | 13 | > 1 | > 1 | 191 to 194 | 17 | > 1 | 31 | > 1 | 9 ± 8 | CCCCCCn1c(=O)c2c(nc(NCc3ccccc3Cl)n2C)n(C)c1=O [compound 8, 8-((2-Chlorobenzyl)amino)-1-hexyl-3,7-dimethyl-3,7-dihydro-1H-purine-2,6-dione] | 
5 | 9 | > 1 | 0.323 ± 0.15 | 205 to 208 | 23 | > 1 | 24 | > 1 |  | Cn1c(NCc2ccccc2Cl)nc2c1c(=O)n(Cc1ccccc1)c(=O)n2C [compound 9] | 
6 | 14 | > 1 | > 1 | 228 to 230 | 12 | > 1 | 31 | > 1 |  | Cn1c(NCc2ccccc2Cl)nc2c1c(=O)n(Cc1ccc(Cl)cc1)c(=O)n2C [compound 10, 1-(4-Chlorobenzyl)-8-((2-chlorobenzyl)amino)-3,7-dimethyl-3,7-dihydro-1H-purine-2,6-dione] | 
7 | 4 | > 1 | > 1 | 198 to 203 | 10 | > 1 | 40 | > 1 | 23 ± 7 | Cn1c(NCc2ccccc2Cl)nc2c1c(=O)n(Cc1ccc(Cl)c(Cl)c1)c(=O)n2C [compound 11, 8-((2-Chlorobenzyl)amino)-1-(3,4-dichlorobenzyl)-3,7-dimethyl-3,7-dihydro-1H-purine-2,6-dione] | 
8 | 9 | > 1 | 0.311 ± 0.167 | 172 to 173 |  | 0.247 ± 0.043 | 16 | > 1 |  | C#CCn1c(=O)c2c(nc(NCc3ccccc3Cl)n2C)n(C2CC2)c1=O [compound 27, 8-((2-Chlorobenzyl)amino)-3-cyclopropyl-7-methyl-1-(prop-2-yn-1-yl)-3,7-dihydro-1H-purine-2,6-dione] | 
9 | 14 | > 1 | 0.386 ± 0.061 | 190 to 192 |  | 0.166 ± 0.065 | -2 | > 1 |  | C#CCn1c(=O)c2c(nc(NCc3ccccc3F)n2C)n(C2CC2)c1=O [compound 28, 3-Cyclopropyl-8-((2-fluorobenzyl)amino)-7-methyl-1-(prop-2-yn-1-yl)-3,7-dihydro-1H-purine-2,6-dione] | 
10 | 16 | > 1 | 0.204 ± 0.038 | 186 to 187 |  | 0.078 ± 0.009 | 16 | > 1 |  | C#CCn1c(=O)c2c(nc(NCc3c(F)cccc3Cl)n2C)n(C2CC2)c1=O [compound 29, 8-((2-Chloro-6-fluorobenzyl)amino)-3-cyclopropyl-7-methyl-1-(prop-2-yn-1-yl)-3,7-dihydro-1H-purine-2,6-dione] | 
